In patent US6762171B1, “Fatty acid CoA thioester inhibitory substance of PPARα and PPARγ” (Kyorin Pharmaceutical Co, Ltd., priority 2002, dated 2004):

How the values were obtained:
[1] = target: T1, human-type PPAR α ligand-binding domain (Homo sapiens, UniProt Q07869); assay: Competition binding with [3H]KRP-297 to 6×His-hPPARα ligand-binding domain; settings: for Binding to the ligand-binding domain of PPARα: competition with 100 nM [3H]KRP-297, test concentration not given; for Binding to PPAR α ligand-binding domain, in words: competition with [3H]KRP-297
T1 construct: made in house; host or cells: Escherichia coli
T1 sequence (Q07869 239-466 limits assumed): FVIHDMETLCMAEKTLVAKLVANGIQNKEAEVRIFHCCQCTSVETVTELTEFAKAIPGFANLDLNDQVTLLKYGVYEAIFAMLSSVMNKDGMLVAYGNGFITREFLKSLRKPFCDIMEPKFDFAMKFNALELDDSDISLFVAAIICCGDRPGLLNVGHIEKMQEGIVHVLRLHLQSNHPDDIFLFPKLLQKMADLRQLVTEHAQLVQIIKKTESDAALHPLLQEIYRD
Text: (§1) Proteins (6×His-hPPARs LBD) tagged 6-copy histidine to the side of N-termini in the ligand-binding domains of human-type PPAR α and PPAR γ were expressed in Escherichia coli, respectively, and purified through a nickel column.

[2] = target: T2, human-type PPAR γ ligand-binding domain (Homo sapiens, UniProt P37231); assay: Competition binding with [3H]KRP-297 to 6×His-hPPARγ ligand-binding domain; settings: for Binding to the ligand-binding domain of PPARγ: competition with 100 nM [3H]KRP-297, test concentration not given; for Binding to PPAR γ ligand-binding domain, in words: competition with [3H]KRP-297
T2 construct: made in house; host or cells: Escherichia coli
T2 sequence (P37231 238-503 limits assumed): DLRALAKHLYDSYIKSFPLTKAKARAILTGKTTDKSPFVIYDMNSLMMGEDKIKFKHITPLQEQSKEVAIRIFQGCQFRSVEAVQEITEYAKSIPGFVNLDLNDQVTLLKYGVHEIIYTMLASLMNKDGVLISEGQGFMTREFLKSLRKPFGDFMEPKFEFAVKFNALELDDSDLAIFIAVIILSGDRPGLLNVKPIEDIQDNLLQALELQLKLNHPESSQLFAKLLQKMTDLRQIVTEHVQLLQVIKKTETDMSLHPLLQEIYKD
Text: as §1

[3] = target: T3, Human PPARα ligand-binding domain and SRC-1 (Homo sapiens, UniProt Q07869); assay: Conjugate formation between PPARα LBD and [35S]SRC-1; type: biochemical
T3 construct: made in house; host or cells: Escherichia coli (PPAR LBD); in vitro translation, TNT, Promega (SRC-1)
T3 sequence (Q07869 239-466 limits assumed): T1 sequence (Q07869 239-466 limits assumed)
Experimental: (§2) [35S]methionine-labeled form of SRC-1 containing 2-copy of LXXLL motif was prepared in vitro (TNTR, Promega Co., Madison, Wis.). 6×His-hPPARs LBD protein was incubated for 60 minutes at 4° C. in 50 mM Tris-HCl buffer (pH 7.4) containing 50 mM KCl and 1 mM dithiothreitol and 0.1% bovine serum albumin in the presence or absence of testing compound. Thereafter, […] of anti-6×His antibody (QIAGEN Co., Germany) were added and the mixture was incubated for 60 minutes at 4° C. Successively, […] of protein G Sepharose (Falmasia Biotech Co., Sweden) were added and the mixture was incubated for 60 minutes at 4° C. After washed thrice by centrifugation, protein G Sepharose was dissolved with […] of SDS-sample buffer, 20% SDS-PAGE, and then [35S]SRC-1 was detected by means of autography.

[4] = target: T4, Human PPARγ ligand-binding domain and SRC-1 (Homo sapiens, UniProt P37231); assay: Conjugate formation between PPARγ LBD and [35S]SRC-1; type: biochemical
T4 construct: made in house; host or cells: Escherichia coli (PPAR LBD); in vitro translation, TNT, Promega (SRC-1)
T4 sequence (P37231 238-503 limits assumed): T2 sequence (P37231 238-503 limits assumed)
Experimental: as §2

CCCCC/C=C\C/C=C\C=C\[C@@H](O)C/C=C\CCCC(=O)O [8(S)-Hydroxyeicosatetraenoic acid, 8(S)-hydroxyeicosatetraenoic acid, reference compound]
Binding to the ligand-binding domain of PPARα [1]: 99%

CCCCC/C=C/C=C1/C(=O)C=C[C@@H]1C/C=C\CCCC(=O)O [15-Deoxy-Δ^12,14-prostaglandin J2, 15-deoxy-Δ^12,14-prostaglandin J2, reference compound]
Binding to the ligand-binding domain of PPARγ [2]: 93%

CCCCC/C=C\C/C=C\C/C=C\C/C=C\CCCC(=O)SCCNC(=O)CCNC(=O)[C@H](O)C(C)(C)COP(=O)(O)OP(=O)(O)OC[C@H]1O[C@@H](n2cnc3c(N)ncnc32)[C@H](O)[C@@H]1OP(=O)(O)O [Arachidonoyl CoA]
Binding to the ligand-binding domain of PPARγ [2]: 46% | Binding to PPAR γ ligand-binding domain, in words [2]: ligand | Binding to the ligand-binding domain of PPARα [1]: 54% | Binding to PPAR α ligand-binding domain, in words [1]: ligand

CCCCC/C=C\C/C=C\CCCCCCCC(=O)SCCNC(=O)CCNC(=O)[C@H](O)C(C)(C)COP(=O)(O)OP(=O)(O)OC[C@H]1O[C@@H](n2cnc3c(N)ncnc32)[C@H](O)[C@@H]1OP(=O)(O)O [Linoleoyl CoA]
Conjugate formation between PPARα LBD and SRC-1 ([3]; KRP-297 30 μM, Linoleoyl CoA 3 μM (0 μM: 6.1 ± 1.7)): 5.5 ± 1.5 | Conjugate formation between PPARα LBD and SRC-1 ([3]; KRP-297 30 μM, Linoleoyl CoA 10 μM (0 μM: 6.1 ± 1.7)): 4.4 ± 0.8 | Conjugate formation between PPARα LBD and SRC-1 ([3]; KRP-297 30 μM, Linoleoyl CoA 30 μM (0 μM: 6.1 ± 1.7)): 1.4 ± 0.1 | Conjugate formation between PPARα LBD and SRC-1 ([3]; KRP-297 30 μM, Linoleoyl CoA 100 μM (0 μM: 6.1 ± 1.7)): 0.9 ± 0.3 | Inhibition of conjugate formation of SRC-1 with PPAR α, in words ([3]; conjugate formation due to ligands KRP-297 and linoleic acid): dose-dependently inhibited | Conjugate formation between PPARα LBD and SRC-1 ([3]; linoleic acid 30 μM, Linoleoyl CoA 3 μM (0 μM: 5.3 ± 1.9)): 6.1 ± 2.2 | Conjugate formation between PPARα LBD and SRC-1 ([3]; linoleic acid 30 μM, Linoleoyl CoA 10 μM (0 μM: 5.3 ± 1.9)): 2.4 ± 0.8 | Conjugate formation between PPARα LBD and SRC-1 ([3]; linoleic acid 30 μM, Linoleoyl CoA 30 μM (0 μM: 5.3 ± 1.9)): 1.2 ± 0.4 | Conjugate formation between PPARα LBD and SRC-1 ([3]; linoleic acid 30 μM, Linoleoyl CoA 100 μM (0 μM: 5.3 ± 1.9)): 0.9 ± 0.3 | Conjugate formation between PPARγ LBD and SRC-1 ([4]; BRL-49653 30 μM, Linoleoyl CoA 3 μM (0 μM: 4.8 ± 0.7)): 4.9 ± 0.6 | Conjugate formation between PPARγ LBD and SRC-1 ([4]; BRL-49653 30 μM, Linoleoyl CoA 10 μM (0 μM: 4.8 ± 0.7)): 4.8 ± 1.9 | Conjugate formation between PPARγ LBD and SRC-1 ([4]; BRL-49653 30 μM, Linoleoyl CoA 30 μM (0 μM: 4.8 ± 0.7)): 1.5 ± 0.5 | Conjugate formation between PPARγ LBD and SRC-1 ([4]; BRL-49653 30 μM, Linoleoyl CoA 100 μM (0 μM: 4.8 ± 0.7)): 1.0 ± 0.1 | Inhibition of conjugate formation of SRC-1 with PPAR γ, in words ([4]; conjugate formation due to ligands BRL-49,653 and linoleic acid): dose-dependently inhibited | Conjugate formation between PPARγ LBD and SRC-1 ([4]; linoleic acid 30 μM, Linoleoyl CoA 3 μM (0 μM: 4.5 ± 0.7)): 4.2 ± 0.3 | Conjugate formation between PPARγ LBD and SRC-1 ([4]; linoleic acid 30 μM, Linoleoyl CoA 10 μM (0 μM: 4.5 ± 0.7)): 2.7 ± 1.1 | Conjugate formation between PPARγ LBD and SRC-1 ([4]; linoleic acid 30 μM, Linoleoyl CoA 30 μM (0 μM: 4.5 ± 0.7)): 1.9 ± 0.8 | Conjugate formation between PPARγ LBD and SRC-1 ([4]; linoleic acid 30 μM, Linoleoyl CoA 100 μM (0 μM: 4.5 ± 0.7)): 1.3 ± 0.4 | Binding to the ligand-binding domain of PPARγ [2]: 59% | Binding to PPAR γ ligand-binding domain, in words [2]: ligand | Binding to the ligand-binding domain of PPARα [1]: 92% | Binding to PPAR α ligand-binding domain, in words [1]: ligand

CCCCCCCCCCCCCC(=O)SCCNC(=O)CCNC(=O)[C@H](O)C(C)(C)COP(=O)(O)OP(=O)(O)OC[C@H]1O[C@@H](n2cnc3c(N)ncnc32)[C@H](O)[C@@H]1OP(=O)(O)O [Myristoyl CoA]
Binding to the ligand-binding domain of PPARγ [2]: 45% | Binding to PPAR γ ligand-binding domain, in words [2]: ligand | Binding to the ligand-binding domain of PPARα [1]: 70% | Binding to PPAR α ligand-binding domain, in words [1]: ligand

CCCCCCCC/C=C\CCCCCCCC(=O)SCCNC(=O)CCNC(=O)[C@H](O)C(C)(C)COP(=O)(O)OP(=O)(O)OC[C@H]1O[C@@H](n2cnc3c(N)ncnc32)[C@H](O)[C@@H]1OP(=O)(O)O [Oleoyl CoA]
Binding to the ligand-binding domain of PPARγ [2]: 52% | Binding to PPAR γ ligand-binding domain, in words [2]: ligand | Binding to the ligand-binding domain of PPARα [1]: 95% | Binding to PPAR α ligand-binding domain, in words [1]: ligand

CCCCCCCCCCCCCCCC(=O)SCCNC(=O)CCNC(=O)[C@H](O)C(C)(C)COP(=O)(O)OP(=O)(O)OC[C@H]1O[C@@H](n2cnc3c(N)ncnc32)[C@H](O)[C@@H]1OP(=O)(O)O [Palmitoyl CoA]
Binding to the ligand-binding domain of PPARγ [2]: 72% | Binding to PPAR γ ligand-binding domain, in words [2]: ligand | Binding to the ligand-binding domain of PPARα [1]: 83% | Binding to PPAR α ligand-binding domain, in words [1]: ligand

CCCCCCCCCCCCCCCCCC(=O)SCCNC(=O)CCNC(=O)[C@H](O)C(C)(C)COP(=O)(O)OP(=O)(O)OC[C@H]1O[C@@H](n2cnc3c(N)ncnc32)[C@H](O)[C@@H]1OP(=O)(O)O [Stearoyl CoA]
Binding to the ligand-binding domain of PPARγ [2]: 89% | Binding to PPAR γ ligand-binding domain, in words [2]: ligand | Binding to the ligand-binding domain of PPARα [1]: 94% | Binding to PPAR α ligand-binding domain, in words [1]: ligand
